Results on seven molecules are retold here after patent US20260152503A1, “SPIROBICYCLIC COMPOUNDS” (ACERAND THERAPEUTICS (HONG KONG) LIMITED, priority 2022, published 2026).

For assay [1], the target named is T1, FGFR2 (Homo sapiens, UniProt P21802, K310R/N549K).
T1 construct: in FGFR aberrations of AN3CA (FGFR2/k310R, N549K); host or cells: AN3CA
As to the kind of experiment: pERK potency assay (In Cell ELISA), AN3CA cells. Type of assay: cell-based. The conditions noted are these: for pIC50: pERK, AN3CA (FGFR2/k310R, N549K) cells, 3 hours; for FGFR1 IC50/FGFR2 IC50 / FGFR3 IC50/FGFR2 IC50: selectivity ratio, pERK potency; for FGFR1 IC50/FGFR2 IC50: FGFR2 relative to FGFR1; for FGFR3 IC50/FGFR2 IC50: FGFR2 relative to FGFR3. In short, it runs like this: (§1)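 IC50 values come from a 4-parameter sigmoidal fit of in-cell ELISA chemiluminescent pERK (Thr202/Tyr204) signal. Treatment lasted 3 h at 37 °C, final 0.000038 to 10 μM in 4-fold steps, using AN3CA (mutant FGFR2), DMS114 (amplified FGFR1) and RT112 (FGFR3 overexpression/fusion) cells.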
For orientation: ELISA stands for enzyme-linked immunosorbent assay.

The target of assay [2] is T2, FGFR1 (Homo sapiens, UniProt P11362).
T2 construct: DMS114 (FGFR1 amplification); host or cells: DMS114
The experiment in a line: pERK potency assay (In Cell ELISA), DMS114 cells. Format: cell-based. The conditions noted are these: DMS114 (FGFR1 amplification) cells, 3 hours. In short, it runs like this: as §1

The target in assay [3] is T3, FGFR3 (Homo sapiens, UniProt P22607).
T3 construct: RT112 (FGFR3 overexpression/FGFR3-TACC3 fusion); host or cells: RT112; the other entry of the earlier key: TACC3 (Q9Y6A5, Transforming acidic coiled-coil-containing protein 3)
The experiment in a line: pERK potency assay (In Cell ELISA), RT112 cells. Type of assay: cell-based. The conditions noted are these: RT112 (FGFR3 overexpression/FGFR3-TACC3 fusion) cells, 3 hours. In short, it runs like this: as §1

Assay [4] deals with AN3CA. The experiment in a line: 2D cell proliferation assay, AN3CA. The conditions noted are these: Homo sapiens, AN3-CA, 96 hours, CTG, read-out: Cell Line, IC50 AN3CA. Format: cell-based. On the procedure:
(§2) Low IC50 values are indicative of the high potency of the FGFR inhibitor compounds in this assay selling. […] Cell proliferation assays are performed in two-dimensional (2D)) anchorage-dependent conditions in 96 well plates (Corning® Black/Clear flat Bottom, Cat #3603) with the following cell lines: • Ba/F3 FGFR2-BICC1 (human […]): Mouse Ba/F3 cell line stably expressed exogenous human FGFR2-BICC1 fusion gene bearing V546F mutation in FGFR2 Ba/F3; • FGFR2-BICC1 (human FGFR2/[…]): Mouse Ba/F3 cell line stably expressed exogenous human FGFR2-BICC1 fusion gene bearing N549K mutation in FGFR2; • Snu-16: human gastric cancer cell with FGFR2 amplification; • KATO III: human gastric cancer cell with FGFR2 amplification; • AN3CA: Human endometrial cancer with FGFR2 mutation (k310R, N549K); • MFM-223: Human breast cancer with FGFR1/2 amplification; • MFE-296: Human endometrial cancer with FGFR2 mutation (N549K); • MFE-280: Human endometrial cancer with FGFR2 mutation ([…]); • NCI-H1581: human non-small cell lung cancer with FGFR1 amplification; • KG-1a: Acute myelogenous leukemia with FGFR1OP2-FGFR1 translocation; • DMS114: human small cell carcinoma of the lung with FGFR1 amplification; • RT112: human bladder cancer with FGFR3 overexpression/FGFR3-TACC3 fusion; • SW780: human bladder cancer with FGFR3 overexpression/FGFR3-BALAP2L1 fusion; • Hep3B: Liver cancer with FGF19 amplification (FGFR4 ligand); • AGS: Human gastric adenocarcinoma with Kras G12D mutation and FGFR wild type; • PC-9: human non-small cell lung cancer (NSCLC) with wild-type FGFR and an EGFR del19 mutation; or • H1975: human non-small cell lung cancer (NSCLC) with wild-type FGFR and EGFR L858R/T790M mutation.
(§3) Cell lines are purchased from the American Type Culture Collection (ATCC) or Sigma. All cell lines are maintained in RPMI-1640 or DMEM supplemented with 10% heat-inactivated fetal bovine serum.
(§4) Cells growing in the log phase are detached with Gibco™ TrypLE™ Express Enzyme and plated in 96 well plate at 3000 to 5000 cells/well in 100 μl of media. After overnight incubation at 37° C., 5% CO2 incubator, cells are treated with compounds (50 uL/well) at the final concentrations spanning from 0.000038 uM to 10 μM (4-fold serial dilution for total of 10 points). Cells are incubated at 37° C., 5% CO2, and 95% humidity incubator for 96 hours. At the end of incubation 2D CTG reagent from Promega was added to each well according to vendors recommendation and mixed for 10 min in dark. The luminescence signals are determined with a Biotek™ plate reader. Data is fitted using a sigmoidal curve analysis program (GraphPad Prism®) with variable hill slope and IC50 is determined.

Assay [5] has as its target T4, Ba/F3 FGFR2-N549K (Homo sapiens, UniProt P21802, N549K, cells depend on it).
T4 construct: fused on or other part: Q9H694 (Protein bicaudal C homolog 1)
As to the kind of experiment: 2D cell proliferation assay, Ba/F3 FGFR2-N549K. The conditions noted are these: 96 hours, CTG, read-out: Cell Line, IC50 Ba/F3 FGFR2-N549K. Format: cell-based, mouse. The procedure, abridged:
(§5)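 Cells seeded at 3000–5000 cells/well in RPMI-1640 or DMEM with 10% FBS, treated next day with compounds at 0.000038–10 μM final (4-fold, 10 points) for 96 h at 37°C, 5% CO2. Viability by CellTiter-Glo luminescence; IC50 from sigmoidal variable-slope fit.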

In assay [6] the target is T5, Ba/F3 FGFR2-V564F (Homo sapiens, UniProt P21802, V564F, cells depend on it).
T5 construct: fused on or other part: Q9H694 (Protein bicaudal C homolog 1)
As to the kind of experiment: 2D cell proliferation assay, Ba/F3 FGFR2-V564F. Format: cell-based, mouse. The conditions noted are these: 96 hours, CTG, read-out: Cell Line, IC50 Ba/F3 FGFR2-V564F. The procedure, abridged: as §5

The test system of assay [7] is KATO III. The experiment in a line: 2D cell proliferation assay, KATO III. Format: cell-based. The conditions noted are these: Homo sapiens, 96 hours, CTG, read-out: Cell Line, IC50 KATO III. On the procedure:
as §2, §3, §4

In assay [8] the test system is SNU-16. The experiment in a line: 2D cell proliferation assay, SNU-16. Type of assay: cell-based. The conditions noted are these: Homo sapiens, 96 hours, CTG, read-out: Cell Line, IC50 SNU-16. As to the method:
as §2, §3, §4

pIC50: −log10 of the molar value.

T4 sequence (P21802 whole entry N549K, the tested form may be a part): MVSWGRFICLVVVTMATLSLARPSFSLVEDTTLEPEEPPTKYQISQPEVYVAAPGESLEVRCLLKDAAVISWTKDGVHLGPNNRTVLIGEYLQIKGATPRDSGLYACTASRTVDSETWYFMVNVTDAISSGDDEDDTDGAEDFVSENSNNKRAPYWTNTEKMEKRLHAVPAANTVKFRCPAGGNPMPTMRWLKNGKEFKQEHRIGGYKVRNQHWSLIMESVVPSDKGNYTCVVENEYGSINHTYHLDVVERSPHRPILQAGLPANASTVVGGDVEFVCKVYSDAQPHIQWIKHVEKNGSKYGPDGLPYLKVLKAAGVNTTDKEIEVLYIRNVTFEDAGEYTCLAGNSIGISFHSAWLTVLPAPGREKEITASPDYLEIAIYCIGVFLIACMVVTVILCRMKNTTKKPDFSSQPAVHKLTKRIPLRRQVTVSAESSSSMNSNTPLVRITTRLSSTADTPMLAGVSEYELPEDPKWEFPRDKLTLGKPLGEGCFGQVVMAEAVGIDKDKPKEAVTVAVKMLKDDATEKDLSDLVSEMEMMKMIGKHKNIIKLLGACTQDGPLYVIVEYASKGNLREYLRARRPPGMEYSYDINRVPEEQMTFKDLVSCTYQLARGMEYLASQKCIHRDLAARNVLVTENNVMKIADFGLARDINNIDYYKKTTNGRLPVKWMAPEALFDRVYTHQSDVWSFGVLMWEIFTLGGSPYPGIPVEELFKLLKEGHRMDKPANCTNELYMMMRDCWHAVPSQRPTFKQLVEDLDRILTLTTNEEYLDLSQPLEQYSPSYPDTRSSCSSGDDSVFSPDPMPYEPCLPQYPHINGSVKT
T5 sequence (P21802 whole entry V564F, the tested form may be a part): as the sequence (P21802 whole entry N549K, the tested form may be a part) above, with K549N, V564F counted along it
T2 sequence (P11362 22-822): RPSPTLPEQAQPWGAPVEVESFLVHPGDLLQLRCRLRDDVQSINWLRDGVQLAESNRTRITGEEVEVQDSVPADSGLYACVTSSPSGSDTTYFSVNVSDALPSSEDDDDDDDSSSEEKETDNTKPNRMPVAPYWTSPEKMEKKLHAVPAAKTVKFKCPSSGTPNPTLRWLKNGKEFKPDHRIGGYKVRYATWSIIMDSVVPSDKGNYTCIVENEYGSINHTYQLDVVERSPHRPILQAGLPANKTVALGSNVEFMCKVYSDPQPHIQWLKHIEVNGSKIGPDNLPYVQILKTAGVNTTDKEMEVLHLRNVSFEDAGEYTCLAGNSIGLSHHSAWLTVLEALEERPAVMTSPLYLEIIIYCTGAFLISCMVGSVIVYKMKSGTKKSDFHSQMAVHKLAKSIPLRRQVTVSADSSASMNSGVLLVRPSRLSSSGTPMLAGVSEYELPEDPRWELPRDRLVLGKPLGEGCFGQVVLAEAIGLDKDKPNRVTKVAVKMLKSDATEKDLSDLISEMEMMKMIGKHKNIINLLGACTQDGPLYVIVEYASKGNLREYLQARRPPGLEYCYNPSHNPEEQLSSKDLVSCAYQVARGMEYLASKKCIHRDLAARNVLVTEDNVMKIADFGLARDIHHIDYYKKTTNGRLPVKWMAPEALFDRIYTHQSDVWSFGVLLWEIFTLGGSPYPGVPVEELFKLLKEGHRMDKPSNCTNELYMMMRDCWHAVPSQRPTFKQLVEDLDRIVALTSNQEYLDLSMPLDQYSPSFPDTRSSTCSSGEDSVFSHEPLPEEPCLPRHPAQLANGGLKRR
T1 sequence (P21802 22-821 K310R/N549K): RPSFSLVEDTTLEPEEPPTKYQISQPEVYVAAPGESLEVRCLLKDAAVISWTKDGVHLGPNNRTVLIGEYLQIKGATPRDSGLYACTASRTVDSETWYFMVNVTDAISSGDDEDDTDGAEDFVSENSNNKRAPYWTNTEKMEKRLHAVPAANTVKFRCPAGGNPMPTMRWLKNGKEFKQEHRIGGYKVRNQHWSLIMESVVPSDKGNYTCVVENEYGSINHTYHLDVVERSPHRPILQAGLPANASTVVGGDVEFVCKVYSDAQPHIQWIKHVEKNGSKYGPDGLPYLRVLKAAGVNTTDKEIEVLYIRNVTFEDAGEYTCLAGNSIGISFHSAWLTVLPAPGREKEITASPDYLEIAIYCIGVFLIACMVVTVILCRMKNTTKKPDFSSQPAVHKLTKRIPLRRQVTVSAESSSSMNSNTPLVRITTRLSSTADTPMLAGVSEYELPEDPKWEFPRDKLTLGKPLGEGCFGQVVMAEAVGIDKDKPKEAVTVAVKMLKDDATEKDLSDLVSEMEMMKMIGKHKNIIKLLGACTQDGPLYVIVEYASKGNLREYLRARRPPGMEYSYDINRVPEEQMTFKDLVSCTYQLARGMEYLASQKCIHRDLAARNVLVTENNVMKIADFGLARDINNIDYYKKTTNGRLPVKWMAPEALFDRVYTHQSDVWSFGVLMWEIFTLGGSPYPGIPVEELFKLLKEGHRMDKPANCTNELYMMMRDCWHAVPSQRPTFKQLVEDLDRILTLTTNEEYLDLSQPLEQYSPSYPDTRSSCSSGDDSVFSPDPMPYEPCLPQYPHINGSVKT

The term pIC50 denotes −log10 of the IC50, conventionally taken in molar units. For the molecule `C=CC(=O)N1CCC2(CC=C(c3c(-c4ccc(OC)nc4)c4c(N)ncnc4n3C)CC2)CC1C` (stereo not shown) [Example 39, 1-(9-(4-amino-5-(6-methoxypyridin-3-yl)-7-methyl-7H-pyrrolo[2,3-d]pyrimidin-6-yl)-2-methyl-3-azaspiro[5.5]undec-8-en-3-yl)prop-2-en-1-one], the pIC50 in assay [1] was 8.00 to 9.00; in assay [2], below 7.00; in assay [3], below 7.00; in assay [4] it was 7.52 to 8.00; in assay [7], 7.52 to 8.00; in assay [8], 7.52 to 8.00. The “FGFR1 IC50/FGFR2 IC50” value in assay [1] was “G (a selectivity ratio greater than 150 but less than or equal to 500)”. For the same molecule, in assay [1], the “FGFR3 IC50/FGFR2 IC50” value is listed as “I (a selectivity ratio greater than 1000 but less than or equal to 2000)”. Moreover, the GI50 lay within 1 to 10 nM in assay [5] and 10 to 30 nM in assay [6].
For the molecule `C=CC(=O)N1CCC2(CC=C(c3c(-c4ncc(C(F)(F)F)cn4)c4c(N)ncnc4n3C)CC2)CC1` [Example 42, 1-(9-(4-amino-7-methyl-5-(5-(trifluoromethyl)pyrimidin-2-yl)-7H-pyrrolo[2,3-d]pyrimidin-6-yl)-3-azaspiro[5.5]undec-8-en-3-yl)prop-2-en-1-one], the pIC50 was at least 9.00 in assay [1]; below 7.00 in assay [2]; below 7.00 in assay [3]; 7.52 to 8.00 in assay [4]; 7.52 to 8.00 in assay [7]; 7.52 to 8.00 in assay [8]. Also, the “FGFR1 IC50/FGFR2 IC50” value in assay [1] is “J (a selectivity ratio greater than 2000)”. The “FGFR3 IC50/FGFR2 IC50” value in assay [1] is given as “J (a selectivity ratio greater than 2000)”. For the same molecule, the GI50 in assay [5] and in assay [6] was 1 to 10 nM throughout.
For `C=CC(=O)N1CCC2(CC=C(c3c(-c4ncc(C#N)cn4)c4c(N)ncnc4n3C)CC2)CC1` [Example 51, 2-(6-(3-acryloyl-3-azaspiro[5.5]undec-8-en-9-yl)-4-amino-7-methyl-7H-pyrrolo[2,3-d]pyrimidin-5-yl)pyrimidine-5-carbonitrile], the pIC50 in assay [1] is at least 9.00; in assay [2], below 7.00; in assay [3] it was below 7.00; in assay [4], 7.00 to 7.52; in assay [7], 7.52 to 8.00; in assay [8], 7.52 to 8.00. The “FGFR1 IC50/FGFR2 IC50” value in assay [1] was “J (a selectivity ratio greater than 2000)”. For the same molecule, in assay [1], the “FGFR3 IC50/FGFR2 IC50” value is “J (a selectivity ratio greater than 2000)”. Besides, the GI50 in assay [5] and in assay [6] was 1 to 10 nM in each case.
`C=CC(=O)N1CCC2(CC=C(c3c(-c4ncc(C(F)F)cn4)c4c(N)ncnc4n3C)CC2)CC1` [Example 56, 1-(9-(4-amino-5-(5-(difluoromethyl)pyrimidin-2-yl)-7-methyl-7H-pyrrolo[2,3-d]pyrimidin-6-yl)-3-azaspiro[5.5]undec-8-en-3-yl)prop-2-en-1-one]: the pIC50 in assay [1] is at least 9.00; in assay [2], below 7.00; in assay [3] it was below 7.00; in assay [4], at least 9.00; in assay [7], 8.00 to 9.00; in assay [8], 8.00 to 9.00. In addition, the “FGFR1 IC50/FGFR2 IC50” value in assay [1] was “G (a selectivity ratio greater than 150 but less than or equal to 500)”. Besides, in assay [1], the “FGFR3 IC50/FGFR2 IC50” value is reported as “I (a selectivity ratio greater than 1000 but less than or equal to 2000)”. Besides, the results for the GI50 in assay [5] and in assay [6] were 1 to 10 nM and at most 1 nM, respectively.
Consider `C=CC(=O)N1CCC2(CC=C(c3c(C#N)c4c(N)ncnc4n3C)CC2)CC1` [Example 57, 6-(3-acryloyl-3-azaspiro[5.5]undec-8-en-9-yl)-4-amino-7-methyl-7H-pyrrolo[2,3-d]pyrimidine-5-carbonitrile], for which the pIC50 in assay [1] is 8.00 to 9.00; in assay [2] it was below 7.00; in assay [3], below 7.00; in assay [4] it was 8.00 to 9.00; in assay [7], 8.00 to 9.00; in assay [8] it was 8.00 to 9.00. In assay [1], the “FGFR1 IC50/FGFR2 IC50” value is on record as “G (a selectivity ratio greater than 150 but less than or equal to 500)”. For the same molecule, the “FGFR3 IC50/FGFR2 IC50” value in assay [1] is “H (a selectivity ratio greater than 500 but less than or equal to 1000)”. In addition, the results for the GI50 in assay [5] and in assay [6] were 10 to 30 nM and above 100 nM, respectively.
`C=CC(=O)N1CCC2(CC=C(c3[nH]c4ncnc(N)c4c3-c3ncccn3)CC2)CC1` [Example 58, 1-(9-(4-amino-5-(pyrimidin-2-yl)-7H-pyrrolo[2,3-d]pyrimidin-6-yl)-3-azaspiro[5.5]undec-8-en-3-yl)prop-2-en-1-one]: the pIC50 in assay [1] is 8.00 to 9.00; in assay [2] it was below 7.00; in assay [3] it was below 7.00; in assay [4], 8.00 to 9.00; in assay [7] it was 7.52 to 8.00; in assay [8], 7.52 to 8.00. The “FGFR1 IC50/FGFR2 IC50” value in assay [1] was “G (a selectivity ratio greater than 150 but less than or equal to 500)”. The “FGFR3 IC50/FGFR2 IC50” value in assay [1] is on record as “H (a selectivity ratio greater than 500 but less than or equal to 1000)”. Further, the GI50 lay in the range of 10 to 30 nM in assay [5] and 1 to 10 nM in assay [6].
Regarding `C=CC(=O)N1CCC2(CC=C(c3c(-c4cnccn4)c4c(N)ncnc4n3C)CC2)CC1` [Example 59, 1-(9-(4-amino-7-methyl-5-(pyrazin-2-yl)-7H-pyrrolo[2,3-d]pyrimidin-6-yl)-3-azaspiro[5.5]undec-8-en-3-yl)prop-2-en-1-one], the pIC50 in assay [1] is 8.00 to 9.00; in assay [2] it was below 7.00; in assay [3], below 7.00; in assay [4], 7.00 to 7.52; in assay [7], 7.00 to 7.52; in assay [8] it was 7.00 to 7.52. Also, in assay [1], the “FGFR1 IC50/FGFR2 IC50” value was “F (a selectivity ratio greater than 50 but less than or equal to 150)”. Also, in assay [1], the “FGFR3 IC50/FGFR2 IC50” value is given as “H (a selectivity ratio greater than 500 but less than or equal to 1000)”. In addition, the results for the GI50 in assay [5] and in assay [6] were 1 to 10 nM and at most 1 nM, respectively.
